The target of data set [1] is Acetylcholinesterase (Electrophorus electricus, UniProt O42275). Put plainly: Inhibition of electric eel AChE by Ellman's method. On the technique in general: Ellman's reagent forms a yellow product with free thiols.
A short description of data set [2]: Antioxidant activity assessed as trolox equivalent of AAPH radical scavenging activity measured every min for 4 hrs by ORAC-FL assay relative to trolox. It is filed as functional.
The target in data set [3] is T1, Cholinesterase (Homo sapiens, UniProt P06276). The data set is described as follows: Inhibition of human serum BChE by Ellman's method. It is filed as cell-free.
T1 sequence (P06276 whole entry): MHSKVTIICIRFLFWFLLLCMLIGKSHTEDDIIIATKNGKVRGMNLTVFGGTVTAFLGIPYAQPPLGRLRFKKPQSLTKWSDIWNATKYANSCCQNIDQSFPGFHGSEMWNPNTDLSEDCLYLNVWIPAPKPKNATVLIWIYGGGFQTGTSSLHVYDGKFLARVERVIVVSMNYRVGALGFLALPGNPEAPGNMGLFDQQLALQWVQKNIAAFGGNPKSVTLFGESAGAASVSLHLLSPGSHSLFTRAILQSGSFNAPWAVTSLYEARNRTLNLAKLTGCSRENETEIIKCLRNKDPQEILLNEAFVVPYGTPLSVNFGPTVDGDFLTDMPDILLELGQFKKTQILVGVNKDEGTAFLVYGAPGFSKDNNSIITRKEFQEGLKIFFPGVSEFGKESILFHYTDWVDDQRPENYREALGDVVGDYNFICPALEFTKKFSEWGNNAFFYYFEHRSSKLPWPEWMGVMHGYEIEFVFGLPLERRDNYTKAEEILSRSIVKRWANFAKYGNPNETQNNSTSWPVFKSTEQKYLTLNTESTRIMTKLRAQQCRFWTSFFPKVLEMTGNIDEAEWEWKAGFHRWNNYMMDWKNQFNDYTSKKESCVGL
Data set [4] has as its target Cholinesterase (Equus caballus, UniProt P81908). The data set is described as follows: Inhibition of equine serum BChE by Ellman's method. It counts as cell-free.
For data set [5], the target named is T2, Acetylcholinesterase (Homo sapiens, UniProt P22303). Put plainly: Inhibition of AChE in human erythrocytes by Ellman's method. It is filed as cell-based, Erythrocyte.
T2 sequence (P22303 whole entry): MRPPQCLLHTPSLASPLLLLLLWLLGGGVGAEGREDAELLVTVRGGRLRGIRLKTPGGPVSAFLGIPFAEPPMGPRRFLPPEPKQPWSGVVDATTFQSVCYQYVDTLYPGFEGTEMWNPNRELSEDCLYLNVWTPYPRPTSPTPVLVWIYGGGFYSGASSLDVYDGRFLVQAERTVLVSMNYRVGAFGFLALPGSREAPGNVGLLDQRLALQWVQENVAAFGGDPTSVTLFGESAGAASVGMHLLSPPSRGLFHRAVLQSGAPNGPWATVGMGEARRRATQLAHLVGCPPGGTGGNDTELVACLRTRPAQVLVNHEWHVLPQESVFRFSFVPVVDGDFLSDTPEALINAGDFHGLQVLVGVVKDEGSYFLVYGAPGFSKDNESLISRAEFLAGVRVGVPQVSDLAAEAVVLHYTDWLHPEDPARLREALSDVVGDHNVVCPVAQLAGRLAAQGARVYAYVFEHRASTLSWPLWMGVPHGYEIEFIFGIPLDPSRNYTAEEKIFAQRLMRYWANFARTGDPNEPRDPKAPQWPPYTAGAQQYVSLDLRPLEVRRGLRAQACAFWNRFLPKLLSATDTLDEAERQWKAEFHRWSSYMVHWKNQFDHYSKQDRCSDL
Data set [6] can be described thus: Selectivity index, ratio of IC50 for inhibition of equine serum BChE to IC50 for inhibition of electric eel AChE.
For data set [7], the target named is T1, Cholinesterase. Put plainly: Inhibition of human serum BChE by Ellman's method relative to control. It counts as cell-free. Further details: concentration or dose not given beside the values. The following applies: concentration not given here.
Data set [8] has as its target T1, Cholinesterase. Put plainly: Inhibition of human serum BChE at 25 uM by Ellman's method relative to control. It counts as cell-free.
The target of data set [9] is Cholinesterase (Equus caballus) (UniProt P81908). The data set is described as follows: Inhibition of equine serum BChE at 25 uM by Ellman's method relative to control. It counts as cell-free.
Cholinesterase (Equus caballus), sequence (P81908 whole entry): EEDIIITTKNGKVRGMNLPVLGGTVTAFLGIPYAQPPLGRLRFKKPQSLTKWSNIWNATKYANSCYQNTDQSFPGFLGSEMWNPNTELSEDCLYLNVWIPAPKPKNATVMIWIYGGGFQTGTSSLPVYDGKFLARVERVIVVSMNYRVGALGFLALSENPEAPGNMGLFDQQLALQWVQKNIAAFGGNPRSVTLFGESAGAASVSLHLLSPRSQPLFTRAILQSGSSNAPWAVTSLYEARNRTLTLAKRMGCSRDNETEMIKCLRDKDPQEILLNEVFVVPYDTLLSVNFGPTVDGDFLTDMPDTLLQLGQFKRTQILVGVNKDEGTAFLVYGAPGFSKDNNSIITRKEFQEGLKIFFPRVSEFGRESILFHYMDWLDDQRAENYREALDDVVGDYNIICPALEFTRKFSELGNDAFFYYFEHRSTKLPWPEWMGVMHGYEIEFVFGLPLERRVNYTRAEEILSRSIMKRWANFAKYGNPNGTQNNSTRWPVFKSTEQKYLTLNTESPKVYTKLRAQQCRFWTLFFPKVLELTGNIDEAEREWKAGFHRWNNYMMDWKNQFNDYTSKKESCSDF
Data set [10] deals with T2, Acetylcholinesterase. Put plainly: Inhibition of AChE in human erythrocytes at 25 uM by Ellman's method relative to control. The following applies: Erythrocyte. It is filed as cell-based.
Data set [11] deals with Acetylcholinesterase (Electrophorus electricus) (UniProt O42275). Put plainly: Inhibition of electric eel AChE at 25 uM by Ellman's method relative to control.
Acetylcholinesterase (Electrophorus electricus), sequence (O42275 24-633 limits assumed): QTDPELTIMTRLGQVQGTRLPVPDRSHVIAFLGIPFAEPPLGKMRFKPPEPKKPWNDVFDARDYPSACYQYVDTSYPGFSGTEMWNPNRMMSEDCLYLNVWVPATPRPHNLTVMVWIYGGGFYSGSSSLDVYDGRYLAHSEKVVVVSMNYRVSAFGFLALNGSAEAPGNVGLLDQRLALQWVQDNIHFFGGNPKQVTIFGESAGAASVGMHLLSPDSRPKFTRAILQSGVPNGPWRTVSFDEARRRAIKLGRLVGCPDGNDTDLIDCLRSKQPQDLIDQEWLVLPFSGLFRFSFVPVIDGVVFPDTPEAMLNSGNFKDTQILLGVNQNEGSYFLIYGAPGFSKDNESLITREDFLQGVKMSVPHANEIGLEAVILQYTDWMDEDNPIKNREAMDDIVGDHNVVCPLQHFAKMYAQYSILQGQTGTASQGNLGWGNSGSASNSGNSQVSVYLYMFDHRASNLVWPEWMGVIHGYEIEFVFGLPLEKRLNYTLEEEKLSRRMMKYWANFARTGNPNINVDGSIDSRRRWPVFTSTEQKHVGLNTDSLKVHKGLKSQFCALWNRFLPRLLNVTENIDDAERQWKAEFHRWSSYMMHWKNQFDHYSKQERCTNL
Data set [12] deals with SH-SY5Y. Put plainly: Cytotoxicity against human SH-SY5Y cells assessed as cell viability up to 100 uM after 48 hrs by MTT assay relative to control. It is filed as cell-based.
Data set [13] in a line: Inhibition of self-induced amyloid beta (1 to 42 residues) (unknown origin) aggregation by thioflavin T based fluorescence assay. Also on record: species or system Homo sapiens. Conditions: read-out: IC50.
Data set [14] concerns PC-12. Put plainly: Cytotoxicity against rat PC-12 cells assessed as reduction in cell viability up to 100 uM after 48 hrs by MTT assay. It is filed as cell-based. Conditions: pc-12, 48 h. A general note: Tetrazolium assays rely on reduction of a dye to a coloured formazan, in cell work by metabolically active cells.
The subject of data set [15] is PC-12. Put plainly: Neuroprotective activity against H2O2-induced cytotoxicity in rat PC-12 cells assessed as decrease in LDH activity at 1 to 10 uM preincubated for 2 hrs followed by H2O2 addition and measured after 24 hrs by LDH assay. It counts as functional, cell-based. Conditions: dose 1-10 µM, time 26.0 hrs.
In data set [16] the test system is PC-12. Put plainly: Neuroprotective activity against H2O2-induced cytotoxicity in rat PC-12 cells assessed as increase in cell viability preincubated for 2 hrs followed by H2O2 addition and measured after 24 hrs by MTT assay. It is filed as functional, cell-based. The following applies: dose 1-10 µM, time 26.0 hrs.
The test system of data set [17] is SH-SY5Y. Put plainly: Neuroprotective activity against amyloid beta (1 to 42 residues)-induced cytotoxicity in human SH-SY5Y cells assessed as increase in cell viability at 1 to 10 uM incubated for 48 hrs by MTT assay. Conditions: dose 1-10 µM. It is filed as functional, cell-based.
Data set [18] is described as follows: Effective permeability of compound at 100 ug/m by PAMPA-BBB assay. It counts as ADME. The following applies: read-out: Peff. Background: PAMPA measures passive passage across an artificial lipid membrane.

Calls of active or inactive are those of the source. The calls are words filed in the database; no cut-off is given here.

Usually IC50 stands for the midpoint of a concentration-inhibition curve. A word on the inhibition: it is the change of the read-out against control, counted positive when it falls.

Acetylcholinesterase (Electrophorus electricus, UniProt O42275), sequence (O42275 whole entry): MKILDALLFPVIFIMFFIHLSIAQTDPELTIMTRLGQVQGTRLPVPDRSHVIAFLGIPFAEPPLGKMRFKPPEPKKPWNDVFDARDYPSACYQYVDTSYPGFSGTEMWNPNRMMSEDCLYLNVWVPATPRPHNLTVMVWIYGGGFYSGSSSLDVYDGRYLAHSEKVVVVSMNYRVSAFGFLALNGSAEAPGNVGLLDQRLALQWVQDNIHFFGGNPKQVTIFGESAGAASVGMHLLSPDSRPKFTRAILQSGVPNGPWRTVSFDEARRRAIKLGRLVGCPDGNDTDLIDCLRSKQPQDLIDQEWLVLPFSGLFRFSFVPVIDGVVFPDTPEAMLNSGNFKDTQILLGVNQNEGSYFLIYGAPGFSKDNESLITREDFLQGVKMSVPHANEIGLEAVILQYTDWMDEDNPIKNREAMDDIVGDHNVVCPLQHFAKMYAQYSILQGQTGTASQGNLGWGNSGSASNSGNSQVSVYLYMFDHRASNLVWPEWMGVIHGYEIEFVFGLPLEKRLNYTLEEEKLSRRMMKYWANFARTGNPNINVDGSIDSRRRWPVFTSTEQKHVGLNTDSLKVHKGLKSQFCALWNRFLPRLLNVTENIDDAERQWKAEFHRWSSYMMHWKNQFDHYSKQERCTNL
Cholinesterase (Equus caballus, UniProt P81908), sequence (P81908 whole entry): as the sequence (P81908 whole entry) above

As for `O=C1CC(c2ccc(OCCCCN3CCC(Cc4ccccc4)CC3)cc2)Oc2cc(OCCCCN3CCC(Cc4ccccc4)CC3)cc(O)c21` (stereo not drawn), the IC50 worked out at 8.1 µM against Acetylcholinesterase [1], 18.7 µM at Cholinesterase [3], 7.5 µM at Cholinesterase [4] and 7.6 µM against Acetylcholinesterase [5]. Also, the fold change (FC) in data set [2] is 0.98. The Ratio IC50 in [6] was 0.93.

Molecule `O=C1CC(c2ccc(OCCCCN3CCc4ccccc4C3)cc2)Oc2cc(OCCCCN3CCc4ccccc4C3)cc(O)c21` (stereo not drawn) returned an inhibition on Cholinesterase [7] of 8.8%. Besides, the IC50 is 16.8 µM against Acetylcholinesterase [1], 20.1 µM against Cholinesterase [3] and 13.2 µM against Acetylcholinesterase [5]. The fold change (FC) in data set [2] turned out to be 1.2.

Regarding `O=c1c(-c2ccc(O)cc2)coc2cc(O)cc(O)c12`, in data set [2], the fold change (FC) is 5.1. Further, the inhibition (on Cholinesterase [8]; in [9]) was under 5% throughout.

`O=C(C=Cc1ccccc1)c1ccccc1`: the inhibition (against Acetylcholinesterase [10]; in data set [11]; against Cholinesterase [8]; in [9]) was under 5% throughout. Moreover, in data set [2], the fold change (FC) was 2.6.

Take `O=c1cc(-c2ccc(OCCCCN3CCC(Cc4ccccc4)CC3)cc2)oc2cc(OCCCCN3CCC(Cc4ccccc4)CC3)cc(O)c12`: the IC50 at Acetylcholinesterase [1] was 10.8 µM; on Cholinesterase [3] it was 12.9 µM; against Cholinesterase [4], 19.7 µM; on Acetylcholinesterase [5] it was 0.67 µM. For the same molecule, the fold change (FC) in [2] stood at 1.1. Also, the Ratio IC50 in data set [6] is 1.8.

As for `CCN(CCCCOc1ccc(-c2coc3cc(OCCCCN(CC)Cc4ccccc4)cc(O)c3c2=O)cc1)Cc1ccccc1`, at Cholinesterase [7], the inhibition was determined as 12%. Besides, the IC50 on Acetylcholinesterase [1] came out at 2.3 µM; against Cholinesterase [3] it was 18.2 µM; against Acetylcholinesterase [5] it was 2.1 µM. Also, the fold change (FC) in data set [2] came to 1.4.

The molecule `CC1c2ccccc2CCN1CCCCOc1ccc(-c2coc3cc(OCCCCN4CCc5ccccc5C4C)cc(O)c3c2=O)cc1` (stereo not drawn) had an inhibition at Cholinesterase [7] of 19%. For the same molecule, the values for the IC50 against Acetylcholinesterase [1], against Cholinesterase [3] and against Acetylcholinesterase [5] were 1.8 µM, 12.4 µM and 5.3 µM, respectively. The fold change (FC) in data set [2] was 1.3.

For the molecule `O=c1c(-c2ccc(OCCCCN3CCC(Cc4ccccc4)CC3)cc2)coc2cc(OCCCCN3CCC(Cc4ccccc4)CC3)cc(O)c12`, the IC50 on Acetylcholinesterase [1] was found to be 7.2 µM; against Cholinesterase [3], 11.9 µM; at Cholinesterase [4] it was 31.8 µM; against Acetylcholinesterase [5], 7.3 µM. Further, the fold change (FC) in [2] came to 1.2. For the same molecule, the Ratio IC50 in data set [6] amounted to 4.4.

`O=c1cc(-c2ccc(OCCCCN3CCN(Cc4ccccc4)CC3)cc2)oc2cc(OCCCCN3CCN(Cc4ccccc4)CC3)cc(O)c12`: the IC50 against Acetylcholinesterase [1] is 26.8 µM; against Cholinesterase [3] it was 10.7 µM; against Cholinesterase [4] it was 37.5 µM; at Acetylcholinesterase [5], 1 µM. In addition, in data set [2], the fold change (FC) was determined as 1.8. Further, the Ratio IC50 in [6] came out at 1.4.

`O=C1CC(c2ccc(OCCCCN3CCN(Cc4ccccc4)CC3)cc2)Oc2cc(OCCCCN3CCN(Cc4ccccc4)CC3)cc(O)c21` (stereo not drawn) returned an inhibition against Cholinesterase [7] of 12.2%. Also, the figures for the IC50 against Acetylcholinesterase [1], against Cholinesterase [3] and against Acetylcholinesterase [5] were 11.6 µM, 21.4 µM and 18.7 µM, respectively. Moreover, in data set [2], the fold change (FC) was found to be 1.7.

Consider `CCN(CCCCOc1ccc(C2CC(=O)c3c(O)cc(OCCCCN(CC)Cc4ccccc4OC)cc3O2)cc1)Cc1ccccc1OC` (stereo not drawn), for which the IC50 against Acetylcholinesterase [1] worked out at 5.3 µM; at Cholinesterase [3] it was 15.6 µM; against Cholinesterase [4], 21.9 µM; at Acetylcholinesterase [5], 4.3 µM; in data set [13], 30.9 µM. For the same molecule, in data set [2], the fold change (FC) stood at 1.3. The values for the Activity entry in the data set on SH-SY5Y [12], with PC-12 [14] and in the data set with PC-12 [16] were “Non-Toxic”, “Non-Toxic” and “Dose-dependent effect”, respectively. The Ratio IC50 in [6] came to 4.1. The result with PC-12 [15] and with SH-SY5Y [17] was Active.

As for `O=c1c(-c2ccc(OCCCCN3CCc4ccccc4C3)cc2)coc2cc(OCCCCN3CCc4ccccc4C3)cc(O)c12`, the IC50 is 13.5 µM against Acetylcholinesterase [1], 13.7 µM against Cholinesterase [3], 52.6 µM against Cholinesterase [4] and 8.1 µM at Acetylcholinesterase [5]. Also, in data set [2], the fold change (FC) is 1.1. In addition, the Ratio IC50 in data set [6] was 3.9.

On to `O=c1c(-c2ccc(OCCCCN3CCCCC3)cc2)coc2cc(OCCCCN3CCCCC3)cc(O)c12`, for which the IC50 on Acetylcholinesterase [1] was found to be 0.52 µM; on Cholinesterase [3], 19.6 µM; at Cholinesterase [4] it was 2.2 µM; on Acetylcholinesterase [5], 0.81 µM; in data set [13], 19.6 µM. Also, in data set [2], the fold change (FC) came out at 1.2. Also, the Activity result with SH-SY5Y [12] was “Non-Toxic”; in the data set on PC-12 [14] it was “Non-Toxic”; in the data set on PC-12 [16], “Dose-dependent effect”. Moreover, in [6], the Ratio IC50 is 4.2. The result in the data set on PC-12 [15] and in the data set on SH-SY5Y [17] was Active.

Regarding `O=c1cc(-c2ccc(O)cc2)oc2cc(O)cc(O)c12` [APIGENIN], the inhibition (on Acetylcholinesterase [10]; in data set [11]; at Cholinesterase [8]; in data set [9]) was under 5% throughout. In data set [2], the fold change (FC) was 6.1. Moreover, the Papp at 100 ug/m in data set [18] amounted to 15.7 ×10⁻⁶ cm/s.

With `O=c1cc(-c2ccc(OCCCCN3CCc4ccccc4C3)cc2)oc2cc(OCCCCN3CCc4ccccc4C3)cc(O)c12`, the IC50 against Acetylcholinesterase [1] was determined as 18.2 µM; at Cholinesterase [3], 15.8 µM; at Cholinesterase [4], 17.5 µM; against Acetylcholinesterase [5], 0.59 µM. The fold change (FC) in data set [2] worked out at 1.3. Besides, the Ratio IC50 in data set [6] came out at 0.96.

On to `O=C(/C=C/c1ccc(OCCCCN2CCCC2)cc1)c1c(O)cc(OCCCCN2CCCC2)cc1O`, for which the IC50 against Acetylcholinesterase [1] was found to be 5.71 µM; against Cholinesterase [3], 1.8 µM; against Cholinesterase [4] it was 8.19 µM; at Acetylcholinesterase [5], 3.2 µM. Also, the fold change (FC) in [2] worked out at 0.93. Also, in [6], the Ratio IC50 is 1.4.

With `CCN(CC)CCCCOc1ccc(/C=C/C(=O)c2c(O)cc(OCCCCN(CC)CC)cc2O)cc1`, the IC50 on Acetylcholinesterase [1] was found to be 6.24 µM; against Cholinesterase [3] it was 8.3 µM; against Cholinesterase [4], 30.8 µM; on Acetylcholinesterase [5], 4.7 µM. For the same molecule, the fold change (FC) in [2] turned out to be 0.9. The Ratio IC50 in data set [6] came to 4.9.

On to `O=C(/C=C/c1ccc(OCCCCN2CCCCC2)cc1)c1c(O)cc(OCCCCN2CCCCC2)cc1O`, for which the 50% inhibitory concentration (IC50) against Acetylcholinesterase [1] stood at 3.52 µM; against Cholinesterase [3], 3.7 µM; against Cholinesterase [4], 7.2 µM; on Acetylcholinesterase [5] it was 5.1 µM. In addition, the fold change (FC) in data set [2] was 1.1. Also, in data set [6], the Ratio IC50 amounted to 2.

For `O=C(/C=C/c1ccc(OCCCCN2CCC(Cc3ccccc3)CC2)cc1)c1c(O)cc(OCCCCN2CCC(Cc3ccccc3)CC2)cc1O`, the IC50 against Acetylcholinesterase [1] amounted to 16.3 µM; at Cholinesterase [3], 9.4 µM; against Cholinesterase [4] it was 46.1 µM; on Acetylcholinesterase [5], 11.9 µM. The fold change (FC) in data set [2] was 1.1. Moreover, the Ratio IC50 in data set [6] amounted to 2.8.

With `O=c1c(-c2ccc(OCCCCN3CCN(Cc4ccccc4)CC3)cc2)coc2cc(OCCCCN3CCN(Cc4ccccc4)CC3)cc(O)c12`, the inhibition against Cholinesterase [7] came to 5.8%. Besides, the figures for the IC50 at Acetylcholinesterase [1], at Cholinesterase [3] and at Acetylcholinesterase [5] were 19.8 µM, 26.4 µM and 25.1 µM, respectively. Besides, in data set [2], the fold change (FC) was determined as 1.8.

On to `O=C1C[C@@H](c2ccc(O)cc2)Oc2cc(O)cc(O)c21`, for which the inhibition (on Acetylcholinesterase [10]; in data set [11]; against Cholinesterase [8]; in data set [9]) was under 5% throughout. Besides, the fold change (FC) in [2] was 5.5.

The values are drawn from ChEMBL document CHEMBL4765274, “The development of advanced structural framework as multi-target-directed ligands for the treatment of Alzheimer's disease” (Eur J Med Chem, 2020).
